Tested on: PANC-1 (human pancreatic cancer-derived cell line)
Assay: MTS assay on Panc-1 (human pancreas carcinoma cell line)
Assay type: cell-based
Conditions: 144 h; for IC50: PANC-1, MTS method, cell survival 6 days after exposure, 4-parameter logistic fit; for inhibition at 0.3125 µM: read-out: Growth inhibition (%) 0.3125 μM
In short: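 PANC-1 cells in D-MEM + 10% FBS at 37 °C, 5% CO2 exposed to 2-fold serial DMSO dilutions of compound for 6 days. Survival read by MTS (492 minus 630 nm, blank-corrected) relative to DMSO control as 100%; mean of 3 runs, 4-parameter logistic fit.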

Compound: CC(C)C[C@H]1ON(C(=O)/C=C/c2nc3ccccc3s2)[C@H]2CN(C3CN(CCCCO)C3)C(=O)[C@H](CC(C)(C)C)N2C1=O [ID-84, (3R,6S,9aS)-1-((E)-3-(benzo[d]thiazol-2-yl)acryloyl)-8-(1-(4-hydroxybutyl)azetidin-3-yl)-3-isobutyl-6-neopentyltetrahydropyrazino[2,1-c][1,2,4]oxadiazine-4,7(3H,6H)-dione]
- IC50: 110 nM
- inhibition at 0.3125 µM (PANC-1, MTS, 6 days): 88.9%

Compound: CC(C)C[C@H]1ON(C(=O)/C=C/c2nc3c(O)cccc3s2)[C@H]2CN([C@H]3CCN(CCCCO)C3)C(=O)[C@H](CC(C)(C)C)N2C1=O [ID-85, (3R,6S,9aS)-1-((E)-3-(4-hydroxybenzo[d]thiazol-2-yl)acryloyl)-8-((S)-1-(4-hydroxybutyl)pyrrolidin-3-yl)-3-isobutyl-6-neopentyltetrahydropyrazino[2,1-c][1,2,4]oxadiazine-4,7(3H,6H)-dione]
- IC50: 110 nM
- inhibition at 0.15625 µM (PANC-1, MTS, 6 days, 0.15625 μM, read-out: Growth inhibition (%) 0.15625 μM): 58.9%

Compound: CC(C)C[C@@H]1C(=O)N2[C@H](CN(C3CCN(C)CC3)C(=O)[C@@H]2Cc2ccccc2)N1C(=O)/C=C/c1nc2ccccc2s1 [ID-86, (2R,5S,8aR)-1-((E)-3-(benzo[d]thiazol-2-yl)acryloyl)-5-benzyl-2-isobutyl-7-(1-methylpiperidin-4-yl)tetrahydroimidazo[1,2-a]pyrazine-3,6(2H,5H)-dione]
- inhibition at 1.25 µM (PANC-1, MTS, 6 days, 1.25 μM, read-out: Growth inhibition (%) 1.25 μM): 50%

Compound: CC(C)C[C@H]1ON(C(=O)/C=C/c2nc(C#CC3(N)CC3)cs2)[C@H]2CN([C@H]3CCN(CCCCO)C3)C(=O)[C@H](CC(C)(C)C)N2C1=O [ID-87, (3R, 6S, 9aS)-1-((E)-3-(4-((1-aminocyclopropyl)ethynyl)thiazol-2-yl)acryloyl)-8-((S)-1-(4-hydroxybutyl)pyrrolidin-3-yl)-3-isobutyl-6-neopentyltetrahydropyrazino[2,1-c][1,2,4]oxadiazine-4,7(3H,6H)-dione]
- inhibition at 0.3125 µM (PANC-1, MTS, 6 days): 54.5%

Compound: CC(C)C[C@H]1ON(C(=O)/C=C/c2nc(C#CCN(C)C)cs2)[C@H]2CN([C@H]3CCN(CCCCO)C3)C(=O)[C@H](CC(C)(C)C)N2C1=O [ID-88, (3R,6S,9aS)-1-((E)-3-(4-(3-(dimethylamino)prop-1-yn-1-yl)thiazol-2-yl)acryloyl)-8-((S)-1-(4-hydroxybutyl)pyrrolidin-3-yl)-3-isobutyl-6-neopentyltetrahydropyrazino[2,1-c][1,2,4]oxadiazine-4,7(3H,6H)-dione]
- inhibition at 0.3125 µM (PANC-1, MTS, 6 days): 38%

Compound: C#Cc1cnc(/C=C/C(=O)N2O[C@H](CC(C)C)C(=O)N3[C@@H]2CN([C@H]2CCN(CCCCO)C2)C(=O)[C@@H]3CC(C)(C)C)s1 [ID-89, (3R,6S,9aS)-1-((E)-3-(5-ethynylthiazol-2-yl)acryloyl)-8-((S)-1-(4-hydroxybutyl)pyrrolidin-3-yl)-3-isobutyl-6-neopentyltetrahydropyrazino[2,1-c][1,2,4]oxadiazine-4,7(3H,6H)-dione]
- IC50: 180 nM
- inhibition at 0.3125 µM (PANC-1, MTS, 6 days): 100%

Compound: CC(C)(C)C[C@H]1C(=O)N([C@@H]2CCN(CCCCO)C2)C[C@@H]2N(C(=O)/C=C/c3cnc4ccccc4n3)O[C@H](CC3CCCCC3)C(=O)N21 [ID-90, (3R, 6S, 9aS)-3-(cyclohexylmethyl)-8-((R)-1-(4-hydroxybutyl)pyrrolidin-3-yl)-6-neopentyl-1-((E)-3-(quinoxalin-2-yl)acryloyl)tetrahydropyrazino[2,1-c][1,2,4]oxadiazine-4,7(3H,6H)-dione]
- IC50: 210 nM
- inhibition at 0.3125 µM (PANC-1, MTS, 6 days): 66%
- inhibition at 1 µM (PANC-1, MTS, 6 days, 1 μM, read-out: Growth inhibition (%) 1 μM): 99%

Compound: CC(C)C[C@H]1ON(C(=O)/C=C/c2nc(C#CCCCCCO)cs2)[C@H]2CN(C3CN(CCCCO)C3)C(=O)[C@H](CC(C)(C)C)N2C1=O [ID-91, (3R,6S,9aS)-8-(1-(4-hydroxybutyl)azetidin-3-yl)-1-((E)-3-(4-(7-hydroxyhept-1-yn-1-yl)thiazol-2-yl)acryloyl)-3-isobutyl-6-neopentyltetrahydropyrazino[2,1-c][1,2,4]oxadiazine-4,7(3H,6H)-dione]
- IC50: 120 nM
